Data from patent publication US20250230226A1, “PLXDC1/PLXDC2 ACTIVATORS AND THEIR USE IN THE TREATMENT OF BLOOD VESSEL DISORDERS” (THE REGENTS OF THE UNIVERSITY OF CALIFORNIA, priority 2019, published 2025).

Key:
[1] = system: LL/2 lung cancer tumor endothelial cells; assay: Lung LL2 ex vivo model of tumor angiogenesis; assay type: cell-based, mouse; settings: for 48 hrs (morphology observations): LL/2 tumor endothelial cells; for cytotoxicity at 20 µM / cytotoxicity at 40 µM: Mus musculus, Endothelial cell, 48 h, read-out: Cell death; for Cell death: drug treatment for two days, ratio of red area to total endothelial cell area
Summary of the method: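 LL2 mouse tumor fragments (~0.075 mm³) embedded in Matrigel and cultured in endothelial growth medium at 37 °C until endothelial outgrowth (~4 days) before treatment. Cell death assessed e.g. 48 h after drug by fluorescein diacetate (live)/propidium iodide (dead) staining and red/green fluorescence imaging.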

[2] = system: CT26.CL25 colon cancer tumor endothelial cells; assay: Colon CT26 ex vivo model of tumor angiogenesis; assay type: cell-based, mouse; settings: for cytotoxicity at 10 µM / cytotoxicity at 40 µM / cytotoxicity at 20 µM: Mus musculus, Endothelial cell, 48 h, read-out: Cell death
Method: An ex vivo tumor angiogenesis model was developed to test the efficacy of anti-cancer candidate agents. The following protocol describes the Ex Vivo Tumor Angiogenesis Model.
• 1. The day before the experiment, all necessary tools were sprayed with 70% ethanol and sterilized under UV light overnight, including blade, dissecting and micro-dissecting scissors and […]. 24-well dishes were placed at 4° C. to pre-chill plates and Matrigel was thawed, 24 hours before tumor dissection. • 2. 70% ethanol was sprayed on working bench. Two sterile petri dishes were prepared with 10 ml sterile PBS. The following steps 3 and 4 are necessary for mouse tumor models. For fresh human tumor, steps 3 and 4 are skipped. • 3. The tumor-bearing mice were euthanized. 70% ethanol was sprayed on the mouse and the tumor was removed using sterilized dissecting tools (avoid the fur). The tumor was rinsed in petri dish with sterile PBS to remove ethanol and fur. The tumor was transferred to a new petri dish with PBS for dissection. The dish is placed on ice. • 4. Pre-chilled sterile pipet tips were used to seed regular Matrigel in 24 well plates on ice. Matrigel (30 μl) was dropped in the middle of each well without touching the edge of the well (avoid introducing bubbles if possible). • 5. The tumor was cut in halves using the sterile blade. Healthy tumor tissue that is not necrotic and is within the tumor capsule was identified and isolated. The healthy tumor tissue was cut into small pieces. For instance, a suitable size for the tumor tissue is 0.5 mm (H)×0.5 mm (L)×0.3 mm (D) with a total volume of 0.075 mm^3. • 6. Each tumor piece was gently transferred and embedded in the Matrigel drop in the 24-well plate. The embedded piece was placed in the bottom and middle of each Matrigel drop. The plate was kept on ice all the time. • 7. After seeding the tumor pieces, plates were incubated in a 37° C. cell culture incubator without medium for 10 minutes in order for the Matrigel to solidify. • 8. Endothelial Growth Medium (0.5 ml) was added to each well and incubated at 37° C. with 5% CO2. Treatment was not added until the new endothelial cells was grown out of the tumor or were larger than 3 mm in diameter. This usually takes 4 days for the LL2 Lewis lung cancer model and 7 days for the CT26 colon cancer model. For human tumor models, the growth time is typically 2-3 weeks, depending on the tumor type. Media was changed every 4 days during prolonged culture. Typically, when the tumor tissue grows to 2 mm in diameter, it was good for drug testing. A size of about 3 mm in diameter can make visualization easier. • 9. When the assay was ready to be analyzed for cell death (e.g., 48 hours after drug addition), the dye mixture was prepared by mixing 6 μl of green dye to stain live cells (5 mg/ml Fluorescein diacetate or FDA in DMSO) with 30 μl of red dye (2.5 mg/ml Propidium iodide or PI in PBS) to stain dead cells in an Eppendorf tube. The FDA dye needs to be stored frozen in a −20° C. freezer because it has a labile ester bond. • 10. 1 μl of the dye mixture was added to each well of the 24-well dish. It is usually preferred to do one 24-well dish at a time given the amount of time needed to take pictures (the green dye is not as stable in the cells in the long term). • 11. The dish was gently rocked a few times to mix the dye with the media in the wells and incubate the dish at 37° C. for 10 min (too long incubation can make the green signal too intense). • 12. Each well was washed with 0.5 ml of sterile PBS and then 0.5 ml of phenol red free SFM was added to each well. Alternatively 0.5 ml of regular Endothelial Cell Growth Media can be added to each well if this well needs to be continuously maintained after the experiment. • 13. An inverted microscope using the 2× objective lens was used to observe morphological changes in the experimental wells. • 14. […]

Row | Compound | 48 hrs (morphology observations) ([1]; 20 μm) | cytotoxicity at 20 µM [1] [%] | 48 hrs (morphology observations after 48 hours) ([2]; Conc. 10 μm) | cytotoxicity at 10 µM [2] [%] | 48 hrs (morphology observations after 48 hours) ([2]; Conc. 40 μm) | cytotoxicity at 40 µM [2] [%] | other results
1 | CCOC(=O)c1ccc2ncc(S(=O)(=O)c3ccc(CC)cc3)c(-n3cncn3)c2c1 [Compound 80] | *** (more than 50% but less than 100% of endothelial cells vesicularize in cell shape) | 100 | *** (100% of endothelial cells vesicularize in cell shape) | 100 | – | – | –
2 | CCc1ccc(S(=O)(=O)c2cnc3ccc(OC(F)(F)F)cc3c2N(CC)CC)cc1 [Compound 81] | – | – | – | – | 0 | 0 | cytotoxicity at 40 µM [1]: 0%
3 | CCc1ccc(S(=O)(=O)c2cnc3ccc(OC(F)(F)F)cc3c2N2CCCC(O)C2)cc1 (stereo not shown) [Compound 82] | – | – | – | – | 0 | 10 | Cell death ([1]; 40 μm): 60%
4 | CCOC(=O)c1ccc2ncc(S(=O)(=O)c3ccc(CC)cc3)c(NN3CCN(C)CC3)c2c1 [Compound 84] | – | – | – | – | * (50% or less of cells vesicularize in cell shape) | 100 | cytotoxicity at 40 µM [1]: 100%
5 | COc1ccc(S(=O)(=O)c2cnc3ccc(OC(F)(F)F)cc3c2NN2CCN(C)CC2)cc1 [Compound 85] | – | – | – | – | 0 | 50 | Cell death ([1]; 40 μm): 80%
6 | COc1ccc(S(=O)(=O)c2cnc3ccc(OC(F)(F)F)cc3c2-n2cncn2)cc1 [Compound 86] | *** (more than 50% but less than 100% of endothelial cells vesicularize in cell shape) | 100 | *** (100% of endothelial cells vesicularize in cell shape) | 100 | – | – | –
7 | CCCCN(CCCC)c1c(S(=O)(=O)c2ccc(CC)cc2)cnc2ccc(OC(F)(F)F)cc12 [Compound 87] | – | – | – | – | 0 | 0 | cytotoxicity at 40 µM [1]: 0%
8 | COc1ccc(S(=O)(=O)c2cnc3ccc(OC(F)(F)F)cc3c2NN2CCN(C)CC2)cc1OC [Compound 88] | – | – | – | – | *** (100% of endothelial cells vesicularize in cell shape) | 60 | 48 hrs (morphology observations) ([1]; 40 μm): 0; Cell death ([1]; 40 μm): 70%
9 | COc1ccc(S(=O)(=O)c2cnc3ccc(OC(F)(F)F)cc3c2-n2cncn2)cc1OC [Compound 89] | *** (more than 50% but less than 100% of endothelial cells vesicularize in cell shape) | 100 | *** (100% of endothelial cells vesicularize in cell shape) | 100 | – | – | –
10 | CN1CCN(Nc2c(S(=O)(=O)c3ccc(OC(F)(F)F)cc3)cnc3ccc(OC(F)(F)F)cc23)CC1 [Compound 90] | – | – | – | – | 0 | 0 | 48 hrs (morphology observations) ([1]; 40 μm): 0; cytotoxicity at 40 µM [1]: 10%
11 | O=S(=O)(c1ccc(OC(F)(F)F)cc1)c1cnc2ccc(OC(F)(F)F)cc2c1-n1cncn1 [Compound 91] | *** (more than 50% but less than 100% of endothelial cells vesicularize in cell shape) | 80 | *** (100% of endothelial cells vesicularize in cell shape) | 100 | – | – | –
12 | CCCCOc1ccc(S(=O)(=O)c2cnc3ccc(OC(F)(F)F)cc3c2NN2CCN(C)CC2)cc1 [Compound 92] | – | – | – | – | 0 | 0 | Cell death ([1]; 20 μm): 10%
13 | CCCCOc1ccc(S(=O)(=O)c2cnc3ccc(OC(F)(F)F)cc3c2-n2cncn2)cc1 [Compound 93] | *** (more than 50% but less than 100% of endothelial cells vesicularize in cell shape) | 100 | *** (100% of endothelial cells vesicularize in cell shape) | 100 | – | – | –
14 | COc1ccc(S(=O)(=O)c2cnc3ccc([N+](=O)[O-])cc3c2NN2CCN(C)CC2)cc1 [Compound 94] | – | – | – | – | 0 | 0 | Cell death ([1]; 40 μm): 20%
15 | CCc1ccc(S(=O)(=O)c2cnc3ccc(OC(F)(F)F)cc3c2NCCO)cc1 [Compound 95] | – | – | – | – | 0 | 0 | Cell death ([1]; 40 μm): 10%
16 | COc1ccc(S(=O)(=O)c2cnc3cc(OC)c(OC)cc3c2-n2cncn2)cc1OC [Compound 96] | – | 0 | 0 | 0 | – | – | –
17 | COc1ccc(S(=O)(=O)c2cnc3ccc([N+](=O)[O-])cc3c2-n2cncn2)cc1 [Compound 97] | – | – | *** (100% of endothelial cells vesicularize in cell shape) | 100 | – | – | Cell death ([1]; 20 μm): 50%
18 | COc1ccc(S(=O)(=O)c2cnc3ccc(CC#N)cc3c2-n2cncn2)cc1 [Compound 98] | – | – | *** (100% of endothelial cells vesicularize in cell shape) | 50 | – | – | Cell death ([1]; 20 μm): 10%
19 | COc1ccc(S(=O)(=O)c2cnc3ccc(CC#N)cc3c2NN2CCN(C)CC2)cc1 [Compound 99] | – | – | – | – | 0 | 0 | Cell death ([1]; 40 μm): 10%
20 | CCc1ccc(S(=O)(=O)c2cnc3ccc(OC(F)(F)F)cc3c2N2CCCN(CCN(CC)CC)CC2)cc1 [Compound 100] | – | – | – | – | **** (100% of endothelial cells vesicularize in cell shape and look flattened in morphology (indicating disintegration of the cell body)) | 100 | 48 hrs (morphology observations) ([1]; 40 μm): **** (100% of endothelial cells vesicularize in cell shape and look flattened in morphology (indicating disintegration of the cell body)); cytotoxicity at 40 µM [1]: 100%
21 | CCc1ccc(S(=O)(=O)c2cnc3ccc(OC(F)(F)F)cc3c2N2CCC(OCCN(CC)CC)CC2)cc1 [Compound 101] | *** (more than 50% but less than 100% of endothelial cells vesicularize in cell shape) | 100 | – | – | – | – | 48 hrs (morphology observations after 48 hours) ([2]; Conc. 20 μm): * (50% or less of cells vesicularize in cell shape); cytotoxicity at 20 µM [2]: 50%
22 | CCc1ccc(S(=O)(=O)c2cnc3ccc(OC(F)(F)F)cc3c2N2CCC(N3CCC(O)CC3)CC2)cc1 [Compound 102] | 0 | 20 | – | – | 0 | 5 | –
23 | CCc1ccc(S(=O)(=O)c2cnc3ccc(OC(F)(F)F)cc3c2-n2ccnn2)cc1 [Compound 110] | *** (more than 50% but less than 100% of endothelial cells vesicularize in cell shape) | – | – | – | ** (more than 50% but less than 100% of endothelial cells vesicularize in cell shape) | 10 | Cell death ([1]; 20 μm): 95%
24 | CCc1ccc(S(=O)(=O)c2cnc3ccc(OC(F)(F)F)cc3c2-n2nnc3ccccc32)cc1 [Compound 112] | *** (more than 50% but less than 100% of endothelial cells vesicularize in cell shape) | – | – | – | ** (more than 50% but less than 100% of endothelial cells vesicularize in cell shape) | 10 | Cell death ([1]; 20 μm): 70%
25 | CCCCOc1ccc2ncc(S(=O)(=O)c3ccc(OC)c(OC)c3)c(N3CCC(N4CCCCC4)CC3)c2c1 [Compound 116] | *** (more than 50% but less than 100% of endothelial cells vesicularize in cell shape) | – | – | – | – | – | Cell death ([1]; 20 μm): 100%; 48 hrs (morphology observations after 48 hours) ([2]; Conc. 20 μm): * (50% or less of cells vesicularize in cell shape); cytotoxicity at 20 µM [2]: 50%
